Measurements: patent publication US12310963B2, “Pyrazole derivatives and use thereof” (Tarapeutics Science Inc., priority 2019, dated 2025)

Columns and labels:
BaF3 = test: Growth of parental BaF3 cells, Cell Titer-Glo, 72 h; format: cell-based; details: Mus musculus
Text: (§1) In this example, mouse primary B cell BaF3 (purchased from ATCC, U.S.A.) was used. In addition, in this example, mouse BaF3-tel-PDGFRα (stably expressing PDGFRα kinase), mouse BaF3-tel-PDGFRβ (stably expressing PDGFRβ kinase), BaF3-P210 (stably expressing ABL kinase), BaF3-P210-T315I (stably expressing ABL-T315I kinase), BaF3-FL-BRAF-V600E (stably expressing BRAF-V600E kinase), BaF3-TEL-cKIT (stably expressing cKIT kinase), BaF3-TEL-VEGFR2 (stably expressing VEGFR2 kinase), BaF3-TEL-FGFR2 (stably expressing FGFR2 kinase) were also used. The above-mentioned cell trains were all constructed in our laboratory by the method as follows. The sequences of human BCR-ABL (P210 or P210/T315I mutated), full-length BRAF-V600E, cKIT, VEGFR2, FGFR2, PDGFRα, PDGFRβ kinase region were amplified respectively via PCR, and inserted respectively into a MSCV-Puro vector (purchased from Clontech) having a N-terminal TEL fragment and/or NPM fragment and/or TPR fragment, and stably transferred into mouse BaF3 cells by the retroviral method, and the growth factor IL-3 was removed. Eventually, cell lines which are transferred into proteins depending on PDGFRα, PDGFRβ were obtained.
(§2) In this example, solutions of the test compound at different concentrations (0.000508 μM, 0.00152 μM, 0.00457 μM, 0.0137 μM, 0.0411 μM, 0.123 μM, 0.370 μM, 1.11 μM, 3.33 μM, 10 μM) were added to the above cells. The cells were incubated for 72 hours.

[1] = system: BaF3-tel-PDGFRβ (stably expressing PDGFRβ kinase); test: Growth of BaF3-tel-PDGFRβ cells, Cell Titer-Glo, 72 h; format: cell-based, mouse
Text: as §1, §2

[2] = system: BaF3-tel-PDGFRα (stably expressing PDGFRα kinase); test: Growth of BaF3-tel-PDGFRα cells, Cell Titer-Glo, 72 h; format: cell-based, mouse
Text: as §1, §2

Structure (SMILES) | GI50 [1] | GI50 [2] | GI50 (BaF3)
Cc1ccc(NC(=O)c2ccnc(C(F)(F)F)c2)cc1-n1cc(-c2cncc(N3CCN(C)CC3)c2)cn1 [Compound 2, N-(4-methyl-3-(4-(5-(4-methylpiperazin-1-yl)pyridin-3-yl)-1H-pyrazol-1-yl)phenyl)-2-(trifluoromethyl)isonicotinamide] | 40 nM | 2.8 nM | 9290 nM
Cc1ccc(NC(=O)c2ccnc(C(F)(F)F)c2)cc1-n1cc(-c2cnccc2OCC2CCOCC2)cn1 [Compound 3, N-(4-methyl-3-(4-(4-((tetrahydropyran-4-yl)methoxy)pyridin-3-yl)-1H-pyrazol-1-yl)phenyl)-2-(trifluoromethyl)isonicotinamide] | 1.4 nM | 1.4 nM | 6500 nM
Cc1ccc(NC(=O)c2cccc(C(F)(F)F)n2)cc1-n1cc(-c2cnccc2OCCN2CCOCC2)cn1 [Compound 4, N-(4-methyl-3-(4-(4-(2-morpholinoethoxy)pyridin-3-yl)-1H-pyrazol-1-yl)phenyl)-6-(trifluoromethyl)picolinamide] | 3.2 nM | < 0.3 nM | ~10000 nM
Cc1ccc(NC(=O)c2cccc(C(F)(F)F)n2)cc1-n1cc(-c2cnccc2OCC2CCCC2)cn1 [Compound 10, N-(3-(4-(4-(cyclopentylmethoxy)pyridin-3-yl)-1H-pyrazol-1-yl)-4-methylphenyl)-6-(trifluoromethyl)picolinamide] | 62 nM | – | > 10000 nM
Cc1ccc(NC(=O)c2cccc(C(F)(F)F)n2)cc1-n1cc(-c2cnccc2OCC2CCOCC2)cn1 [Compound 13, N-(4-methyl-3-(4-(4-((tetrahydropyran-4-yl)methoxy)pyridin-3-yl)-1H-pyrazol-1-yl)phenyl)-6-(trifluoromethyl)picolinamide] | 5.5 nM | 1.6 nM | > 10000 nM
Cc1ccc(NC(=O)c2cccc(F)n2)cc1-n1cc(-c2cncc(N3CCN(C)CC3)c2)cn1 [Compound 14, 6-fluoro-N-(4-methyl-3-(4-(5-(4-methylpiperazin-1-yl)pyridin-3-yl)-1H-pyrazol-1-yl)phenyl)picolinamide] | < 1.5 nM | < 1.5 nM | 8400 nM
Cc1ccc(NC(=O)c2cc(C(F)(F)F)ccn2)cc1-n1cc(-c2cncc(N3CCN(C)CC3)c2)cn1 [Compound 15, N-(4-methyl-3-(4-(5-(4-methylpiperazin-1-yl)pyridin-3-yl)-1H-pyrazol-1-yl)phenyl)-4-(trifluoromethyl)picolinamide] | < 1.5 nM | < 1.5 nM | 3900 nM
Cc1ccc(NC(=O)c2cncc(C(F)(F)F)c2)cc1-n1cc(-c2cncc(N3CCN(C)CC3)c2)cn1 [Compound 16, N-(4-methyl-3-(4-(5-(4-methylpiperazin-1-yl)pyridin-3-yl)-1H-pyrazol-1-yl)phenyl)-5-(trifluoromethyl)nicotinamide] | < 1.5 nM | < 1.5 nM | > 10000 nM
Cc1ccc(NC(=O)c2cccc(Cl)n2)cc1-n1cc(-c2cncc(N3CCN(C)CC3)c2)cn1 [Compound 17, 6-chloro-N-(4-methyl-3-(4-(5-(4-methylpiperazin-1-yl)pyridin-3-yl)-1H-pyrazol-1-yl)phenyl)picolinamide] | < 1.5 nM | < 1.5 nM | 2800 nM
Cc1ccc(NC(=O)c2ccnc(C(F)(F)F)c2)cc1-n1cc(-c2cncc(N3CCN(C)CC3)c2)nn1 [Compound 19, N-(4-methyl-3-(4-(5-(4-methylpiperazin-1-yl)pyridin-3-yl)-1H-1,2,3-triazol-1-yl)phenyl)-2-(trifluoromethyl)isonicotinamide] | < 10 nM | < 10 nM | > 10000 nM
Cc1ccc(NC(=O)c2cncc(C(F)(F)F)c2)cc1-n1cc(-c2cncc(N3CCN(C)CC3)c2)nn1 [Compound 20, N-(4-methyl-3-(4-(5-(4-methylpiperazin-1-yl)pyridin-3-yl)-1H-1,2,3-triazol-1-yl)phenyl)-5-(trifluoromethyl)nicotinamide] | < 10 nM | < 10 nM | 5070 nM
Cc1ccc(NC(=O)c2cc(C(F)(F)F)ccn2)cc1-n1cc(-c2cncc(N3CCN(C)CC3)c2)nn1 [Compound 21, N-(4-methyl-3-(4-(5-(4-methylpiperazin-1-yl)pyridin-3-yl)-1H-1,2,3-triazol-1-yl)phenyl)-4-(trifluoromethyl)picolinamide] | < 10 nM | < 10 nM | 2840 nM
Cc1ccc(NC(=O)c2cccc(Cl)n2)cc1-n1cc(-c2cncc(N3CCN(C)CC3)c2)nn1 [Compound 22, 6-chloro-N-(4-methyl-3-(4-(5-(4-methylpiperazin-1-yl)pyridin-3-yl)-1H-1,2,3-triazol-1-yl)phenyl)picolinamide] | < 10 nM | < 10 nM | 960 nM
CN1CCN(c2cncc(-c3cn(-c4cc(NC(=O)c5cccc(C(F)(F)F)n5)ccc4F)nn3)c2)CC1 [Compound 24, N-(4-fluoro-3-(4-(5-(4-methylpiperazin-1-yl)pyridin-3-yl)-1H-1,2,3-triazol-1-yl)phenyl)-6-(trifluoromethyl)picolinamide] | < 10 nM | < 10 nM | 4760 nM
CN1CCN(c2cncc(-c3cn(-c4cc(NC(=O)c5ccnc(C(F)(F)F)c5)ccc4F)nn3)c2)CC1 [Compound 25, N-(4-fluoro-3-(4-(5-(4-methylpiperazin-1-yl)pyridin-3-yl)-1H-1,2,3-triazol-1-yl)phenyl)-2-(trifluoromethyl) isonicotinamide] | < 10 nM | < 10 nM | 5550 nM
CN1CCN(c2cncc(-c3cn(-c4cc(NC(=O)c5cncc(C(F)(F)F)c5)ccc4F)nn3)c2)CC1 [Compound 26, N-(4-fluoro-3-(4-(5-(4-methylpiperazin-1-yl)pyridin-3-yl)-1H-1,2,3-triazol-1-yl)phenyl)-5-(trifluoromethyl)nicotinamide] | < 10 nM | < 10 nM | 4740 nM
CN1CCN(c2cncc(-c3cn(-c4cc(NC(=O)c5cc(C(F)(F)F)ccn5)ccc4F)nn3)c2)CC1 [Compound 27, N-(4-fluoro-3-(4-(5-(4-methylpiperazin-1-yl)pyridin-3-yl)-1H-1,2,3-triazol-1-yl)phenyl)-4-(trifluoromethyl)picolinamide] | < 10 nM | < 10 nM | 4730 nM

Continued, in another order:

GI50 [1] | GI50 [2] | Structure (SMILES) | GI50 (BaF3)
< 0.3 nM | < 0.3 nM | Cc1ccc(NC(=O)c2ccnc(C(F)(F)F)c2)cc1-n1cc(-c2cnccc2OCCN2CCOCC2)cn1 [Compound 5, N-(4-methyl-3-(4-(4-(2-morpholinoethoxy)pyridin-3-yl)-1H-pyrazol-1-yl)phenyl)-2-(trifluoromethyl)isonicotinamide] | ~10000 nM
1 nM | < 0.3 nM | Cc1ccc(NC(=O)c2cccc(C(F)(F)F)n2)cc1-n1cc(-c2cnccc2OC2COC2)cn1 [Compound 6, N-(4-methyl-3-(4-(4-(oxetan-3-yloxy)pyridin-3-yl)-1H-pyrazol-1-yl)phenyl)-6-(trifluoromethyl)picolinamide] | > 10000 nM
1 nM | < 0.3 nM | Cc1ccc(NC(=O)c2ccnc(C(F)(F)F)c2)cc1-n1cc(-c2cncc(OC3COC3)c2)cn1 [Compound 7, N-(4-methyl-3-(4-(5-(oxetan-3-yloxy)pyridin-3-yl)-1H-pyrazol-1-yl)phenyl)-2-(trifluoromethyl)isonicotinamide] | > 10000 nM
1.3 nM | – | Cc1ccc(NC(=O)c2cccc(C(F)(F)F)n2)cc1-n1cc(-c2cnccc2OCC2CCCO2)cn1 (stereo not shown) [Compound 8, N-(4-methyl-3-(4-(4-((tetrahydrofuran-2-yl)methoxy)pyridin-3-yl)-1H-pyrazol-1-yl)phenyl)-6-(trifluoromethyl)picolinamide] | > 10000 nM
< 0.3 nM | – | Cc1ccc(NC(=O)c2ccnc(C(F)(F)F)c2)cc1-n1cc(-c2cnccc2OCC2CCCO2)cn1 (stereo not shown) [Compound 9, N-(4-methyl-3-(4-(4-((tetrahydrofuran-2-yl)methoxy)pyridin-3-yl)-1H-pyrazol-1-yl)phenyl)-2-(trifluoromethyl)isonicotinamide] | > 10000 nM
1.1 nM | – | Cc1ccc(NC(=O)c2ccnc(C(F)(F)F)c2)cc1-n1cc(-c2cnccc2OCC2CCCC2)cn1 [Compound 11, N-(3-(4-(4-(cyclopentylmethoxy)pyridin-3-yl)-1H-pyrazol-1-yl)-4-methylphenyl)-2-(trifluoromethyl)isonicotinamide] | > 10000 nM
1 nM | – | Cc1ccc(NC(=O)c2ccnc(C(F)(F)F)c2)cc1-n1cc(-c2cncc(N3CCOCC3)c2)cn1 [Compound 12, N-(4-methyl-3-(4-(5-morpholinopyridin-3-yl)-1H-pyrazol-1-yl)phenyl)-2 (trifluoromethyl)isonicotinamide] | ~10000 nM
